For orientation: IC50 means the concentration that inhibits the measured activity by half.

The experiment has as its target Glycolate oxidase (Sus scrofa). Nature of the experiment: In vitro inhibition of porcine Glycolate oxidase.
As to `O=C(O)C(=O)CC(=O)c1ccc(-c2ccc(SCC3(O)COc4ccccc4OC3)cc2)cc1`, the 50% inhibitory concentration (IC50) amounted to 60 nM.

`O=C(O)C(=O)CC(=O)c1ccc(-n2c(-c3ccccc3)cc3ccccc32)cc1`: the IC50 came out at 180 nM.

Molecule `CCCCCCCCCc1ccc(C(=O)CC(=O)C(=O)O)cc1` came in with an IC50 of 600 nM.

In turn, `O=C(O)C(=O)CC(=O)c1ccc(-c2ccc(SCc3ccccc3)cc2)cc1` had an IC50 of 400 nM.

Molecule `O=C(O)C(=O)CC(=O)c1ccc(-c2ccc(Br)cc2)cc1` gave a half-inhibitory concentration (IC50) of 63 nM.

With `CC1=C(C=CC(=O)CC(=O)C(=O)O)C(C)(C)CCC1`, 1400 nM corresponded to half-maximal inhibition (IC50).

Regarding `O=C(C=Cc1ccccc1)CC(=O)C(=O)O`, the midpoint of inhibition, the IC50, lay at 19000 nM.

Regarding `CSc1ccc(-c2ccc(C(=O)CC(=O)C(=O)O)cc2)cc1`, the IC50 turned out to be 160 nM.

`O=C(O)C(=O)CC(=O)c1ccc(C2CCCc3ccccc32)cc1` (centres undefined) came in with an IC50 of 2100 nM.

The values are drawn from BindingDB's records for doi:10.1021/jm00362a020 (1983).
